Measurements published in ChEMBL document CHEMBL5356971, “Optimization of the Antibacterial Spectrum and the Developability Profile of the Novel-Class Natural Product Corramycin” (J Med Chem, 2023).
In brackets after ≈: the same amount, converted by molar mass. Activity calls are given as the source filed them. No cut-off for these calls is given here.

Tests used:
HepG2 = assay: Cytotoxicity against human HepG2 cells assessed as inhibition of cell growth at 30 uM incubated for 40 hrs by celltiterglo assay; type: functional
[1] = Metabolic stability in mouse kidney assessed as parent compound remaining measured after 4 hrs by UPLC-MS analysis; type: ADME, tissue-based; conditions: read-out: Stability
[2] = Metabolic stability in mouse lung assessed as parent compound remaining measured after 4 hrs by UPLC-MS analysis; type: ADME, tissue-based; conditions: mouse lung, read-out: Stability
Escherichia coli [3] = assay: Antibacterial activity against Escherichia coli ATCC 35218 infected in Swiss albino mouse model of Septicaemia infection assessed as log reduction in Septicaemia in blood at 1 mg/kg , iv preincubated for 4 hrs followed by bacterial infection and measured after 4 hrs post infection; type: functional; conditions: time 8 hrs
Escherichia coli [4] = assay: Antibacterial activity against wild type Escherichia coli ATCC 35218 assessed as reduction in microbial growth incubated for 20 to 22 hrs by CLSI based analysis; type: functional; conditions: time 20-22 hrs
Escherichia coli [5] = assay: Antibacterial activity against Escherichia coli ATCC 35218 harboring SbmA assessed as reduction in microbial growth incubated for 20 to 22 hrs by CLSI based analysis; type: functional; conditions: time 20-22 hrs
Klebsiella pneumoniae [6] = assay: Antibacterial activity against wild type Klebsiella pneumoniae ATCC 13883 assessed as reduction in microbial growth incubated for 20 to 22 hrs by CLSI based analysis; type: functional; conditions: time 20-22 hrs
Acinetobacter baumannii [7] = assay: Antibacterial activity against wild type Acinetobacter baumannii ATCC 19606 assessed as reduction in microbial growth incubated for 20 to 22 hrs by CLSI based analysis; type: functional; conditions: time 20-22 hrs
Escherichia coli [8] = assay: Antibacterial activity against Escherichia coli ATCC 25922 infected in Swiss albino mouse thigh infection model at 10 mg/kg, iv measured after 1 hr; type: functional, organism-based
Klebsiella pneumoniae [9] = assay: Antibacterial activity against Klebsiella pneumoniae ATCC 13883 infected in Swiss albino mouse thigh infection model at 10 mg/kg, iv measured after 1 hr; type: functional, organism-based
[10] = Toxicity in Swiss albino mouse at 10 mg/kg, iv measured after 1 hr; type: organism-based; conditions: in vivo
Escherichia coli [11] = assay: Antibacterial activity against […] assessed as bacterial growth inhibition incubated for 20 to 22 hrs by CLSI based analysis; type: functional; conditions: time 20-22 hrs
Escherichia coli [12] = assay: Antibacterial activity against multidrug-resistant Escherichia coli MG1655 harboring tolC mutant assessed as bacterial growth inhibition incubated for 20 to 22 hrs by CLSI based analysis; type: functional; conditions: time 20-22 hrs
Escherichia coli [13] = assay: Antibacterial activity against multidrug-resistant Escherichia coli UT189 assessed as bacterial growth inhibition incubated for 20 to 22 hrs by CLSI based analysis; type: functional; conditions: time 20-22 hrs
Escherichia coli [14] = assay: Antibacterial activity against multidrug-resistant Escherichia coli IR45 assessed as bacterial growth inhibition incubated for 20 to 22 hrs by CLSI based analysis; type: functional; conditions: time 20-22 hrs
Klebsiella pneumoniae [15] = assay: Antibacterial activity against […] assessed as bacterial growth inhibition incubated for 20 to 22 hrs by CLSI based analysis; type: functional; conditions: time 20-22 hrs
Klebsiella pneumoniae [16] = assay: Antibacterial activity against multidrug-resistant Klebsiella pneumoniae NCTC 13443 assessed as bacterial growth inhibition incubated for 20 to 22 hrs by CLSI based analysis; type: functional; conditions: time 20-22 hrs
Klebsiella pneumoniae [17] = assay: Antibacterial activity against multidrug-resistant Klebsiella pneumoniae BAA2146 assessed as bacterial growth inhibition incubated for 20 to 22 hrs by CLSI based analysis; type: functional; conditions: time 20-22 hrs
Klebsiella pneumoniae [18] = assay: Antibacterial activity against multidrug-resistant Klebsiella pneumoniae R1525 assessed as bacterial growth inhibition incubated for 20 to 22 hrs by CLSI based analysis; type: functional; conditions: time 20-22 hrs
Klebsiella pneumoniae [19] = assay: Antibacterial activity against multidrug-resistant Klebsiella pneumoniae B817 assessed as bacterial growth inhibition incubated for 20 to 22 hrs by CLSI based analysis; type: functional; conditions: time 20-22 hrs
Klebsiella pneumoniae [20] = assay: Antibacterial activity against multidrug-resistant Klebsiella pneumoniae NR-48977 assessed as bacterial growth inhibition incubated for 20 to 22 hrs by CLSI based analysis; type: functional; conditions: time 20-22 hrs
Pseudomonas aeruginosa [21] = assay: Antibacterial activity against multidrug-resistant Pseudomonas aeruginosa PAO1 assessed as bacterial growth inhibition incubated for 20 to 22 hrs by CLSI based analysis; type: functional; conditions: time 20-22 hrs
Pseudomonas aeruginosa [22] = assay: Antibacterial activity against multidrug-resistant Pseudomonas aeruginosa PAO750 assessed as bacterial growth inhibition incubated for 20 to 22 hrs by CLSI based analysis; type: functional; conditions: time 20-22 hrs
Enterobacter cloacae = assay: Antibacterial activity against multidrug-resistant Enterobacter cloacae BAA2341 assessed as bacterial growth inhibition incubated for 20 to 22 hrs by CLSI based analysis; type: functional; conditions: time 20-22 hrs
Citrobacter freundii = assay: Antibacterial activity against multidrug-resistant Citrobacter freundii ATCC 8090 assessed as bacterial growth inhibition incubated for 20 to 22 hrs by CLSI based analysis; type: functional; conditions: time 20-22 hrs
Acinetobacter baumannii [23] = assay: Antibacterial activity against multidrug-resistant Acinetobacter baumannii R831 assessed as bacterial growth inhibition incubated for 20 to 22 hrs by CLSI based analysis; type: functional; conditions: time 20-22 hrs
[24] = Aqueous solubility of compound at pH 4.5; type: physicochemical; conditions: buffer
[25] = Aqueous solubility of compound at pH 5.5; type: physicochemical; conditions: buffer
[26] = Cmax in Swiss mouse kidney at 3 mg/kg, iv measured upto 24 hrs by LC-MS/MS analysis; type: ADME, organism-based; parameters: dose 3 mg/kg, time < 24 hrs, route iv
[27] = Cmax in Swiss mouse lung at 3 mg/kg, iv measured upto 24 hrs by LC-MS/MS analysis; type: ADME, organism-based; parameters: time < 24 hrs, dose 3 mg/kg, route iv
[28] = AUClast in Swiss mouse plasma at 3 mg/kg, iv measured upto 24 hrs by LC-MS/MS analysis; type: ADME, organism-based; parameters: time < 24 hrs, dose 3 mg/kg, route iv
[29] = AUClast in Swiss mouse Kidney at 3 mg/kg, iv measured upto 24 hrs by LC-MS/MS analysis; type: ADME, organism-based; parameters: dose 3 mg/kg, time < 24 hrs, route iv
[30] = Observed clearance Swiss mouse at 3 mg/kg, iv measured upto 24 hrs by LC-MS/MS analysis; type: ADME, organism-based; conditions: in vivo
[31] = Half life in Swiss mouse at 3 mg/kg, iv measured upto 24 hrs by LC-MS/MS analysis; type: ADME, organism-based; conditions: in vivo
[32] = Drug excretion in urine of Swiss mouse at 3 mg/kg, iv measured upto 24 hrs by LC-MS/MS analysis; type: ADME, organism-based; conditions: read-out: Drug excretion
[33] = Cytotoxicity against human HEK cells assessed as inhibition of cell growth at 30 uM incubated for 40 hrs by celltiterglo assay; type: toxicity, cell-based
[34] = Ratio of AUC in kidney to plasma in Swiss mouse at 3 mg/kg, iv measured upto 24 hrs by LC-MS/MS analysis; type: ADME, organism-based; conditions: read-out: Ratio AUC
Escherichia coli [35] = assay: Antibacterial activity against Escherichia coli ATCC 25922 infected in Swiss albino mouse model of Septicaemia infection assessed as log reduction in Septicaemia in blood at 0.1 to 10 mg/kg , iv preincubated for 4 hrs followed by bacterial infection and measured after 4 hrs post infection; type: functional; conditions: dose 0.1-10 mg/kg, time 8 hrs
Escherichia coli [36] = assay: Antibacterial activity against Escherichia coli UT189 infected in Swiss albino mouse model of urinary tract infection assessed as log reduction in bacteremia in urine at 10 mg/kg, iv pre-infected with bacteria for 24 hrs followed by compound treatment for every 24 hrs for 3 days; type: functional; conditions: time 3 day
Escherichia coli [37] = assay: Antibacterial activity against Escherichia coli UT189 infected in Swiss albino mouse model of urinary tract infection assessed as log reduction in bacteremia in bladder at 10 mg/kg, iv pre-infected with bacteria for 24 hrs followed by compound treatment for every 24 hrs for 3 days; type: functional; conditions: time 3 day

## CO[C@@H](CNC(=O)[C@H](NC(=O)[C@H](O)[C@H](C)O)[C@H](O)c1cncn1C)[C@H](O)[C@H](O)C(=O)N(C)[C@@H](Cc1ccccc1)C(=O)NCC(=O)N[C@H](C(=O)N[C@@H](CO)C(=O)N[C@H](C(=O)N[C@H](C(=O)N[C@@H](CC(=O)O)C(=O)N1CCC[C@H]1C(=O)NCc1cc(=O)c(O)cn1O)C(C)(C)C)C(C)(C)O)C(C)(C)O
HepG2
  Activity: inactive
[1]
  remaining at 4 h: 91%
[2]
  remaining at 4 h: 80%
Escherichia coli [3]
  Activity: -3.8 log10CFU
Escherichia coli [4]
  MIC: 0.01 µg/mL
Escherichia coli [5]
  MIC: 0.12 µg/mL
Klebsiella pneumoniae [6]
  MIC: 0.03 µg/mL
Acinetobacter baumannii [7]
  MIC: 0.03 µg/mL
Escherichia coli [8]
  Activity: Active
Klebsiella pneumoniae [9]
  Activity: Active
[10]
  Activity: Non-Toxic
Escherichia coli [11]
  MIC: 0.06 µg/mL (≈ 0.0415 µM)
Escherichia coli [12]
  MIC: 0.01 µg/mL (≈ 0.00691 µM)
Escherichia coli [13]
  MIC: 0.01 µg/mL (≈ 0.00691 µM)
Escherichia coli [14]
  MIC: 2 µg/mL (≈ 1.38 µM)
Klebsiella pneumoniae [15]
  MIC: 0.06 µg/mL (≈ 0.0415 µM)
Klebsiella pneumoniae [16]
  MIC: 2 µg/mL (≈ 1.38 µM)
Klebsiella pneumoniae [17]
  MIC: 0.12 µg/mL (≈ 0.0829 µM)
Klebsiella pneumoniae [18]
  MIC: 0.06 µg/mL (≈ 0.0415 µM)
Klebsiella pneumoniae [19]
  MIC: 0.03 µg/mL (≈ 0.0207 µM)
Klebsiella pneumoniae [20]
  MIC: 4 µg/mL (≈ 2.76 µM)
Pseudomonas aeruginosa [21]
  MIC: > 32 µg/mL
Pseudomonas aeruginosa [22]
  MIC: 32 µg/mL (≈ 22.1 µM)
Enterobacter cloacae
  MIC: 0.25 µg/mL (≈ 0.173 µM)
Citrobacter freundii
  MIC: 2 µg/mL (≈ 1.38 µM)
Acinetobacter baumannii [23]
  MIC: 2 µg/mL (≈ 1.38 µM)
[24]
  solubility: 8100 µg/mL (≈ 5600 µM)
[25]
  solubility: 9100 µg/mL (≈ 6290 µM)
[26]
  Cmax: 14200 ng/mL
[27]
  Cmax: 2420 ng/mL
[28]
  AUC(0-t) at 24 h: 2860 ng·h/mL
[29]
  AUC(0-t) at 24 h: 7150 ng·h/mL
[30]
  clearance: 13.5 mL/min/kg
[31]
  half-life: 15 min
[32]
  dose excreted at 24 h: 65%
[33]
  Activity: Non-Toxic
[34]
  Kp at 24 h: 2.5
Escherichia coli [35]
  log(activity): 3
Escherichia coli [36]
  log(activity): 4.7
Escherichia coli [37]
  log(activity): 3.1
